The test system of data set [1] is Sphaerotheca fuliginea. Nature of the data set: in vivo preventive test on Sphaerotheca fuliginea (cucumber). The note with it: 500 ppm of active ingredient, evaluated 7 days after inoculation. As to the method:
Solvent: 49 parts by weight of N,N-dimethylformamide Emulsifier: 1 part by weight of Alkylarylpolyglycolether To produce a suitable preparation of active compound, 1 part by weight of active compound is mixed with the stated amounts of solvent and emulsifier, and the concentrate is diluted with water to the desired concentration. To test for preventive activity, young plants are sprayed with the preparation of active compound at the stated rate of application. One day after this treatment, the plants are inoculated with an aqueous spore suspension of Sphaerotheca fuliginea. Then the plants are placed in a greenhouse at approximately 23° C. and a relative atmospheric humidity of approximately 70%. The test is evaluated 7 days after the inoculation. 0% means an efficacy which corresponds to that of the untreated control, while an efficacy of 100% means that no disease is observed.

Data set [2] relates to Alternaria solani. Put plainly: in vivo preventive test on Alternaria solani (tomato). The note with it: 500 ppm of active ingredient, evaluated 7 days after inoculation. The method, boiled down:
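Young tomato plants were sprayed preventively with compound in DMF/alkylarylpolyglycolether diluted in water, then inoculated one day later with A. solani spores. Incubation was 1 day at about 22 °C and 100% RH, then about 20 °C and 96% RH. Efficacy was scored 7 days after inoculation (0% = untreated control, 100% = no disease).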

For data set [3], the system named is Pyrenophora teres. Nature of the data set: in vivo preventive test on Pyrenophora teres (barley). The note with it: 500 ppm of active ingredient, evaluated 7-9 days after inoculation. In short, it runs like this:
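Young barley plants sprayed with compound in DMF/alkylaryl polyglycol ether emulsion; inoculated with P. teres spores one day later. 48 h at 22 °C, 100% humidity, then greenhouse ~20 °C, ~80% humidity; efficacy scored 7-9 days post-inoculation, 0% = untreated, 100% = no disease.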

Data set [4] has as its system Venturia inaequalis. Put plainly: in vivo preventive test on Venturia inaequalis (apple scab). Particulars: 100 ppm of active ingredient, evaluated 10 days after inoculation. As for the experimental part:
Solvent: 24.5 parts by weight of acetone • 24.5 parts by weight of N,N-dimethylacetamide Emulsifier: 1 part by weight of alkylaryl polyglycol ether To produce a suitable preparation of active compound, 1 part by weight of active compound is mixed with the stated amounts of solvent and emulsifier, and the concentrate is diluted with water to the desired concentration. To test for preventive activity, young plants are sprayed with the preparation of active compound at the stated rate of application. After the spray coating has dried on, the plants are inoculated with an aqueous conidia suspension of the causal agent of apple scab (Venturia inaequalis) and then remain for 1 day in an incubation cabinet at approximately 20° C. and a relative atmospheric humidity of 100%. The plants are then placed in a greenhouse at approximately 21° C. and a relative atmospheric humidity of approximately 90%. The test is evaluated 10 days after the inoculation. 0% means an efficacy which corresponds to that of the untreated control, while an efficacy of 100% means that no disease is observed.

Data set [5] can be described thus: logP by HPLC on reversed-phase column (EEC Directive 79/831 Annex V.A8). It is filed as physicochemical. Particulars: HPLC on reversed-phase column (C 18), 40° C., 0.1% aqueous formic acid and acetonitrile, linear gradient 10% to 90% acetonitrile. The method, boiled down:
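Reversed-phase C18 HPLC at 40° C with 0.1% aqueous formic acid/acetonitrile, linear gradient 10% to 90% acetonitrile. LogP obtained from retention time by linear interpolation between successive unbranched alkan-2-ones (3 to 16 carbons) of known logP. Lambda-max taken from UV spectra at 200-400 nm at chromatographic peak maxima.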

For data set [6], the system named is Leptosphaeria nodorum. Nature of the data set: in vivo preventive test on Leptosphaeria nodorum (wheat). Particulars: 500 ppm of active ingredient, evaluated 7-9 days after inoculation. As for the experimental part:
Solvent: 49 parts by weight of N,N-dimethylacetamide Emulsifier: 1 part by weight of alkylaryl polyglycol ether To produce a suitable preparation of active compound, 1 part by weight of active compound is mixed with the stated amounts of solvent and emulsifier, and the concentrate is diluted with water to the desired concentration. To test for preventive activity, young plants are sprayed with a preparation of active compound at the stated rate of application. One day after this treatment, the plants are inoculated with an aqueous spore suspension of Leptosphaeria nodorum. The plants remain for 48 hours in an incubation cabinet at 22° C. and a relative atmospheric humidity of 100%. Then the plants are placed in a greenhouse at a temperature of approximately 22° C. and a relative atmospheric humidity of approximately 90%. The test is evaluated 7-9 days after the inoculation. 0% means an efficacy which corresponds to that of the untreated control, while an efficacy of 100% means that no disease is observed.

In data set [7] the test system is Fusarium nivale (var. majus). Put plainly: in vivo curative test on Fusarium nivale (wheat). Particulars: 500 ppm of active ingredient, evaluated 5 days after inoculation. As to the method: Solvent: 49 parts by weight of N,N-dimethylacetamide Emulsifier: 1 part by weight of alkylaryl polyglycol ether To produce a suitable preparation of active compound, 1 part by weight of active compound or active compound combination is mixed with the stated amounts of solvent and emulsifier, and the concentrate is diluted with water to the desired concentration. To test for curative activity, young plants are slightly injured by using a sandblast and afterwards they are sprayed with a conidia suspension of Fusarium nivale (var. majus) and placed for 24 hours in a greenhouse under a translucent incubation cabinet at a temperature of approximately 10° C. and a relative atmospheric humidity of approximately 100% and are subsequently sprayed with the preparation of active compound at the stated rate of application. After the spray coating has been dried, the plants remain in the greenhouse under translucent incubation cloches at a temperature of approximately 10° C. and a relative atmospheric humidity of approximately 100%. The test is evaluated 5 days after the inoculation. 0% means an efficacy which corresponds to that of the untreated control, while an efficacy of 100% means that no disease is observed.

Data set [8] has as its system Blumeria graminis fsp. hordei. Put plainly: in vivo preventive test on Blumeria graminis (barley). The note with it: 500 ppm of active ingredient, evaluated 7 days after inoculation. As for the experimental part:
Solvent: 49 parts by weight of N,N-dimethylacetamide Emulsifier: 1 part by weight of alkylaryl polyglycol ether To produce a suitable preparation of active compound, 1 part by weight of active compound or active compound combination is mixed with the stated amounts of solvent and emulsifier, and the concentrate is diluted with water to the desired concentration. To test for preventive activity, young plants are sprayed with the preparation of active compound or active compound combination at the stated rate of application. After the spray coating has been dried, the plants are dusted with spores of Blumeria graminis fsp. hordei. The plants are placed in the greenhouse at a temperature of approximately 18° C. and a relative atmospheric humidity of approximately 80% to promote the development of mildew pustules. The test is evaluated 7 days after the inoculation. 0% means an efficacy which corresponds to that of the untreated control, while an efficacy of 100% means that no disease is observed.

Data set [9] deals with Septoria tritici. Put plainly: in vivo preventive test on Septoria tritici (wheat). Particulars: 500 ppm of active ingredient, evaluated 21 days after inoculation. As for the experimental part:
Solvent: 49 parts by weight of N,N-dimethylacetamide Emulsifier: 1 part by weight of alkylaryl polyglycol ether To produce a suitable preparation of active compound, 1 part by weight of active compound or active compound combination is mixed with the stated amounts of solvent and emulsifier, and the concentrate is diluted with water to the desired concentration. To test for preventive activity, young plants are sprayed with the preparation of active compound or active compound combination at the stated rate of application. After the spray coating has been dried, the plants are sprayed with a spore suspension of Septoria tritici. The plants remain for 48 hours in an incubation cabinet at approximately 20° C. and a relative atmospheric humidity of approximately 100% and afterwards for 60 hours at approximately 15° C. in a translucent incubation cabinet at a relative atmospheric humidity of approximately 100%. The plants are placed in the greenhouse at a temperature of approximately 15° C. and a relative atmospheric humidity of approximately 80%. The test is evaluated 21 days after the inoculation. 0% means an efficacy which corresponds to that of the untreated control, while an efficacy of 100% means that no disease is observed.

One may read the logP as a log measure of how a compound divides between an organic and an aqueous phase.

Take `Cc1nn(-c2ccccc2)nc1CN(C(=S)c1c(C(F)F)nn(C)c1F)C1CC1` [Example 132]: the Efficacy in data set [1] was 100%; in [2] it was 90%; in data set [3] it was 100%; in [4], 98%. The compound also came in with a logP in data set [5] of 4.04.

Turning to `CC(c1csc2ccccc12)N(C(=O)c1c(C(F)F)nn(C)c1F)C1CC1` (racemic) [Example 85], the Efficacy in data set [1] was determined as 94%; in [2], 80%; in [3] it was 100%; in [4], 100%; in data set [6], 100%; in [7], 100%. Further, the Efficacy is listed as 100% in data set [8] and 90% in [9]. This compound gave a lipophilicity (logP) in [5] of 3.60.

The values above are taken from patent US9320276B2, “N-hetarylmethyl pyrazolylcarboxamides” (BAYER INTELLECTUAL PROPERTY GMBH, priority 2010, dated 2016).
